From patent US6407058B1, “Modifying the permeability of physiological barriers” (Eisai Co., Limited, priority 1996, dated 2002)

Legend:
Assay type in all cases: cell-based
[1] = test system: E-cadherin-associated p100/p120; test: E-cadherin immunoprecipitation and p100/p120 immunoblotting, MDCK I cells
From the text: It has been shown that although some of the p100/p120 in cells is associated with adherens junctions, there is also a large pool that is not complexed with cadherins (at least by immunoprecipitation analysis). […] This procedure served to isolate only that portion of the cellular p100/p120 that associates with the cadherins. Following electrophoresis, and transfer to nitrocellulose, the p100 and p120 present in E-cadherin immunoprecipitates were detected by immunoblotting (Example 9A). […] In both cases, p100/p120 is shown to be present at regions of cell—cell contact.
Whole cell lysates were prepared by rapidly replacing the culture medium in 6.5 mm with hot Laemmli sample buffer, followed by heating at 100° C. for 5 minutes. Immunoprecipitations were carried out at 4° C. Confluent monolayers of cells were washed rapidly with ice cold PBS (containing 0.9 mM CaCl2 and 0.5 mM MgCl2) before addition of 0.5 ml of the appropriate buffer. The filters were then gently scraped, and the lysate was removed and centrifuged at 14000× g. The supernatant was precleared with 10% (w/v) protein A-Sepharose in lysis buffer for 30-60 minutes. Appropriate primary antibodies were added to the lysate, and after 2-3 hours the immunecomplex was isolated, using rabbit anti-mouse secondary antibodies (Jackson Immunoresearch Labs Inc., West Grove, Pa.) and protein A-Sepharose. The beads were washed fives times with lysis buffer, and the bound protein was solubilized in SDS-sample buffer, followed by heating at 100° C. for 5 minutes.
For Immunoprecipitations, Triton lysis buffer or TDS lysis buffer was used. Triton lysis buffer (pH adjusted to 7.4 using NaOH) contained 25 mM Hepes, 1% Triton X-100, 2 mM EDTA, 0.1 M NaCl, 25 mM NaF, 1 mM vanadate, and protease inhibitors. […]
Cell extracts or immunoprecipitates in SDS sample buffer were resolved by SDS-PAGE. […] The filters were then extensively washed in PBS/0.5% Tween-20, and immunoreactive bands were detected by enhanced chemiluminescence (Amersham) following the manufacturers instructions.

[2] = test system: E-cadherin; test: E-cadherin electrophoretic mobility by immunoblotting, MDCK I cells; details: 200 nM PDB, 30 minutes
Procedure: The migration of the cellular proteins p100 and p120 during electrophoresis is increased following PDB-treatment of MDCK I cells. PDB (phorbol-12,13-dibutyrate) is a pharmacological activator of protein kinase C. MDCK I cells are a kidney derived epithelial cell line, with particularly well developed junctional complexes. Cells treated for 30 minutes with either 200 nM PDB (+) or vehicle (−) were then lysed into Laemmli sample buffer, and separated by electrophoresis using 6% acrylamide gels. Proteins were transferred to nitrocellulose and probed with antibodies to p100/p120, and then reprobed with E-cadherin and paxillin antibodies.
Cell extracts or immunoprecipitates in SDS sample buffer were resolved by SDS-PAGE. The slab gels were then equilibrated in buffer comprising; 48 mM Tris, 39 mM glycine, 20% methanol and 0.03% SDS. Proteins were transferred to nitrocellulose filters (Hybond ECL; Amersham), which were Ponceau S stained and then blocked for 2 hours at 37° C. with 1% BSA in PBS containing 0.05% Tween-20. Filters were then probed with p120 antibody, at a dilution of 1:2500. […] The filters were then extensively washed in PBS/0.5% Tween-20, and immunoreactive bands were detected by enhanced chemiluminescence (Amersham) following the manufacturers instructions.

[3] = test system: p100/p120; test: p100/p120 electrophoretic mobility, Caco-2 cells; details: 200 nM PDB, 30 minutes
Procedure: (§1) p100 and p120 electrophoretic mobility is affected by PDB in a number of different epithelial cell lines. LLC-PK1, (a porcine kidney cell line), MDCK strain II cells and gut-derived Caco-2 cells were treated with or without 200 nM PDB for 30 minutes, lysed into Laemmli sample buffer, separated by electrophoresis and analysed by immunoblotting.
(§2) MDCK strain I and II cells were provided by Barry Gumbiner (memorial Sloan-Kettering Cancer Center, NY). LLC-PK1 and Caco-2 cells were obtained from the European Collection of Animal Cell Cultures. All cells were maintained at 37° C. under 5% CO2 in humidified air. MDCK strain I and II cells were maintained in MEM containing 10% FCS, 100 U/ml penicillin, 100 μg/ml streptomycin and 2 mM L-glutamine. Caco-2 cells were maintained in MEM containing 15% FCS, 1% non-essential amino acids and 1 μg/ml bovine insulin (Sigma I-6634). LLC-PK1 cells were grown in M199 (Gibco), 10% FCS, 100 U/ml penicillin, 100 μg/ml streptomycin and 2 mM L-glutamine. For whole cell lysate analysis, 10^5 cells were plated on 6.5 mm diameter, 0.4 μm, polycarbonate Transwell filters from Costar, in 0.25 ml of medium. The basolateral chamber contained 0.75 ml of medium. For immunoprecipitation, 5×10^5 cells were plated onto 24 mm Transwell filters, in 2 ml of medium, with 3 ml of medium in the lower chamber. Cells were used 4-7 days after plating. […]

[4] = test system: p100/p120; test: p100/p120 electrophoretic mobility, MDCK strain II cells; details: 200 nM PDB, 30 minutes
Procedure: as §1, §2

SMILES: CCCC(=O)O[C@@H]1[C@@H](C)[C@@]2(O)[C@@H](C=C(CO)C[C@]3(O)C(=O)C(C)=C[C@@H]23)[C@@H]2C(C)(C)[C@]12OC(=O)CCC [PDB, Phorbol-12,13-dibutyrate]
- phosphorylation of E-cadherin-associated p100/p120 ([1]; PDB, Triton lysis buffer, E-cadherin immunoprecipitates): is dephosphorylated
- phosphorylation of non-E-cadherin-associated p100/p120 ([1]; PDB, data not shown): subject to dephosphorylation
- amount of p100 and p120 present in E-cadherin immunoprecipitates ([1]; after addition of PDB): no obvious change
- effect on E-cadherin migration [2]: no effect
- migration of p100 and p120 [3]: less striking, but still present
- migration of p100 and p120 [4]: increased markedly
